Ends that are not written are not given here.

The term Emax denotes the greatest response seen or fitted, relative to the assay's reference.

In one test the target is T1, wild-type NK3R (Homo sapiens, UniProt P29371).
T1 construct: FLAG (DYKDDDDK); expressed in transfected cells; host or cells: HEK293T
T1 sequence (P29371 1-465): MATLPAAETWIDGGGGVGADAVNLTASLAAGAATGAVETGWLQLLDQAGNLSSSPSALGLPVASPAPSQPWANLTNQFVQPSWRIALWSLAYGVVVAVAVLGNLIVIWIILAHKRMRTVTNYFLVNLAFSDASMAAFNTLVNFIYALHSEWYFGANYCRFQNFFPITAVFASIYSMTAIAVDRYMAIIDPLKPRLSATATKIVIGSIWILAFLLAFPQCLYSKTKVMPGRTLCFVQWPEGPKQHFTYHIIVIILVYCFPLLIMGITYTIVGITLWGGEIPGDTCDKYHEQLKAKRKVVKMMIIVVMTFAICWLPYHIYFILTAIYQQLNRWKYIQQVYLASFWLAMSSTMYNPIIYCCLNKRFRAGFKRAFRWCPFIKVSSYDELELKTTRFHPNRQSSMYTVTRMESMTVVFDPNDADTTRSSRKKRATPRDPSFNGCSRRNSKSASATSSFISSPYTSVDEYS
In words: IP-one accumulation assay, wild-type NK3R. In kind it is cell-based.

The next test has as its system NK1R, NK2R, NK3R. The settings on record: ref [21]; cited from earlier work.
In test [1] the target is T2, NK3R V235A (human, UniProt P29371 1-465, NK3R-V235^ECL2 to alanine).
T2 sequence (looked up): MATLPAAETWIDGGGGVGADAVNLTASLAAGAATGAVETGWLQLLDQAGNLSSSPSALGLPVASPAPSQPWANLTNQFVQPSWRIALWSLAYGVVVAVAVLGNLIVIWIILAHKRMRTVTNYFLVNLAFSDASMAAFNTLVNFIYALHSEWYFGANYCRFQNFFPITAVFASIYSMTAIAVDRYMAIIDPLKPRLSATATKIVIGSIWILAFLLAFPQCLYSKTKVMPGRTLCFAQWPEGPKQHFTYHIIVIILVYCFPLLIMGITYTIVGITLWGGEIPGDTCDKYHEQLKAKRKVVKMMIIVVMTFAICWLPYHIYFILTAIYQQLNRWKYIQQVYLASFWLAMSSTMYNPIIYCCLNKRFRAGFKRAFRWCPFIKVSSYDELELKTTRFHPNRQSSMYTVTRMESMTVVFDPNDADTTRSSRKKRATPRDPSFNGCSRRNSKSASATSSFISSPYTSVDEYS

Test [2] addresses T2, NK3R V235A. In words: cell-based or functional assay.

In turn, `CSCC[C@H](NC(=O)[C@H](CC(C)C)NC(=O)CNC(=O)[C@@H](NC(=O)[C@H](Cc1ccccc1)NC(=O)[C@H](Cc1ccccc1)NC(=O)[C@H](CC(=O)O)NC(=O)[C@H](Cc1c[nH]cn1)NC(=O)[C@H](CCSC)NC(=O)[C@@H](N)CC(=O)O)C(C)C)C(N)=O` [NKB, neurokinin B] came in with an Emax on wild-type NK3R of 100%.
Still for that read-out and setting: with `CSCC[C@H](NC(=O)[C@H](CC(C)C)NC(=O)CNC(=O)[C@H](Cc1ccccc1)NC(=O)[C@H](Cc1ccccc1)NC(=O)[C@H](CCC(N)=O)NC(=O)[C@H](CCC(N)=O)NC(=O)[C@@H]1CCCN1C(=O)[C@H](CCCCN)NC(=O)[C@@H]1CCCN1C(=O)[C@@H](N)CCCNC(=N)N)C(N)=O` [SP, substance P] the figure was 100%.
As to neurokinin A [NKA], the “Preferential receptor activation/binding, in words” value in the test on NK1R, NK2R, NK3R was “preferentially bind to NK1R and NK2R, respectively”.
With “senktide (suc-(Asp6, MePhe8) SP (6–11)) (peptide)”, the IP-one accumulation, HEK293T cells; fold decrease in receptor activation against wild-type NK3R, stimulated by senktide in the test with NK3R V235A [1] was 64 fold.
In the case of RPKPQQFFGLM-NH2 (peptide, UniProt P20366 58-68, looked up) [substance P], in the test with NK3R V235A [2], the “IP-one accumulation, HEK293T cells; fold decrease in receptor activation against wild-type NK3R, stimulated by SP” value is 30 fold.
For DMHDFFVGLM-NH2 (peptide, UniProt Q9UHF0 81-90, looked up) [neurokinin B], the “IP-one accumulation, HEK293T cells; fold decrease in receptor activation against wild-type NK3R, stimulated by NKB” value in the test with NK3R V235A [2] was found to be 5.2 fold.
